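Test compounds were applied to cells in 96-well plates for 48 hours at 5 doses. GI50 is the concentration that inhibits growth by half.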 The source made the active and inactive calls. Cut-off read from the data, not from the text of the source: active = GI50 up to about 1.1 µM and inactive = higher.
Legend:
Test in all cases: NCI anticancer screen, dose series, 48 h
[1] = test system: 786-0
[2] = test system: A498
[3] = test system: ACHN
[4] = test system: HCC 2998
[5] = test system: HOP-62
[6] = test system: HOP-92
[7] = test system: IGROV-1
[8] = test system: NCI-H226
[9] = test system: NCI-H460
[10] = test system: NCI/ADR-RES
[11] = test system: RXF 393
[12] = test system: SF-268
[13] = test system: SF-539
[14] = test system: SK-MEL-28
[15] = test system: SK-MEL-5
[16] = test system: SNB-75
[17] = test system: TK-10
[18] = test system: CCRF-CEM
[19] = test system: OVCAR-3
[20] = test system: HL-60

SMILES | GI50 [1] | GI50 [2] | GI50 [3] | GI50 [4] | GI50 [5] | GI50 [6] | GI50 [7] | GI50 [8] | GI50 [9] | GI50 [10] | GI50 [11] | GI50 [12] | GI50 [13] | GI50 [14] | GI50 [15] | GI50 [16] | GI50 [17] | GI50 [18] | GI50 [19] | GI50 [20]
O=C1/C(=C/c2cccc([N+](=O)[O-])c2)N=C(c2ccccc2)N1c1nc2ccc(Sc3ccccc3)cc2[nH]1 | 60.1 µM (inactive) | 87.7 µM (inactive) | > 100 µM (inactive) | 67.6 µM (inactive) | 83 µM (inactive) | 71.4 µM (inactive) | 37.8 µM (inactive) | > 100 µM (inactive) | 25 µM (inactive) | 29.3 µM (inactive) | 74.3 µM (inactive) | 39 µM (inactive) | 57.4 µM (inactive) | 84.7 µM (inactive) | 28.8 µM (inactive) | 52.4 µM (inactive) | 71.4 µM (inactive) |  |  | 
C/C=C1/CN2CC[C@@H]3c4ccccc4N4[C@H](C(=O)OC)[C@H]1C[C@H]2[C@]34/C=C/C1=COC[C@@H]2[C@H]1C[C@H]1c3c(c4ccccc4n3C)C[C@@H]2N1C |  | 4.59 µM (inactive) | 4.03 µM (inactive) | 0.345 µM (active) | 3.82 µM (inactive) | 4.28 µM (inactive) | 4.57 µM (inactive) | 4.5 µM (inactive) | 4.04 µM (inactive) | 3.46 µM (inactive) | 4.19 µM (inactive) | 3.61 µM (inactive) | 4.15 µM (inactive) | 5.15 µM (inactive) | 3.89 µM (inactive) |  | 3.86 µM (inactive) | 5.31 µM (inactive) | 4.33 µM (inactive) | 
CO[C@@H]1C[C@H]2[C@@H]3CC[C@H]([C@H](C)CO)[C@@]3(C)CC[C@@H]2[C@@]2(C)CC[C@H]3C[C@]312 | 62.5 µM (inactive) | 80.4 µM (inactive) | 33.2 µM (inactive) | 36.1 µM (inactive) | > 100 µM (inactive) | 21 µM (inactive) | 84.7 µM (inactive) | 28.1 µM (inactive) | 26.7 µM (inactive) | 34.3 µM (inactive) | 26.2 µM (inactive) | 35.7 µM (inactive) | 45.7 µM (inactive) | 46.9 µM (inactive) | 30.4 µM (inactive) | 89.9 µM (inactive) | > 100 µM (inactive) |  | > 100 µM (inactive) | 20.7 µM (inactive)
CSc1nc2c(ncn2C2OC(CO)C(O)C(O)C2O)c(=O)n1C (stereo unspecified) |  | > 100 µM (inactive) |  | > 100 µM (inactive) | > 100 µM (inactive) | > 100 µM (inactive) | > 100 µM (inactive) | > 100 µM (inactive) | > 100 µM (inactive) | > 100 µM (inactive) | > 100 µM (inactive) | > 100 µM (inactive) | > 100 µM (inactive) | > 100 µM (inactive) | > 100 µM (inactive) | > 100 µM (inactive) |  | > 100 µM (inactive) | > 100 µM (inactive) | > 100 µM (inactive)
CCOC(=O)CC[C@H](NC(=O)N[C@H](C)c1ccccc1)C(=O)OCC | 37.9 µM (inactive) | > 100 µM (inactive) | 53.5 µM (inactive) | 25.9 µM (inactive) | > 100 µM (inactive) | 22 µM (inactive) | 20.8 µM (inactive) | > 100 µM (inactive) | > 100 µM (inactive) | 22.8 µM (inactive) |  |  | 14.7 µM (inactive) | 20.9 µM (inactive) | 37 µM (inactive) |  | 42.8 µM (inactive) | 22.6 µM (inactive) | 18 µM (inactive) | > 100 µM (inactive)
NS(=O)(=O)c1ccc(NNc2c3ccccc3nc3c(C(=O)Nc4ccc(S(=O)(=O)Nc5ncccn5)cc4)cccc23)cc1 | > 25 µM (inactive) |  | > 25 µM (inactive) | > 25 µM (inactive) | > 25 µM (inactive) | > 25 µM (inactive) | > 25 µM (inactive) | > 25 µM (inactive) | > 25 µM (inactive) | > 25 µM (inactive) | > 25 µM (inactive) | > 25 µM (inactive) | > 25 µM (inactive) | 10.1 µM (inactive) | > 25 µM (inactive) | 20.2 µM (inactive) | > 25 µM (inactive) | > 25 µM (inactive) | > 25 µM (inactive) | > 25 µM (inactive)
NCCC1([N+](=O)[O-])C=CN=CC1 (stereo unspecified) | > 100 µM (inactive) | > 100 µM (inactive) | > 100 µM (inactive) |  |  | < 0.01 µM (active) | > 100 µM (inactive) | > 100 µM (inactive) | > 100 µM (inactive) | > 100 µM (inactive) | > 100 µM (inactive) | > 100 µM (inactive) | > 100 µM (inactive) | > 100 µM (inactive) | > 100 µM (inactive) | 6.98 µM (inactive) | > 100 µM (inactive) | > 100 µM (inactive) |  | > 100 µM (inactive)
CCC1CN(C(=O)c2ccccc2)C(Cc2c[nH]c3ccccc23)C(=O)C1CC(=O)OC (stereo unspecified) |  | 1.09 µM (active) | > 100 µM (inactive) |  | 39 µM (inactive) | > 100 µM (inactive) | 72.4 µM (inactive) | > 100 µM (inactive) | 43.4 µM (inactive) | 86.7 µM (inactive) | > 100 µM (inactive) | > 100 µM (inactive) | > 100 µM (inactive) | > 100 µM (inactive) | 72.8 µM (inactive) | 88.3 µM (inactive) | > 100 µM (inactive) | 51.4 µM (inactive) |  | 31.6 µM (inactive)
Cc1ccc(S(=O)(=O)N(CCN)c2cc3c4c(c2)Oc2cccc5c2C4c2c(cccc2O3)O5)cc1 | 16.6 µM (inactive) | 55.3 µM (inactive) | 44.7 µM (inactive) | > 100 µM (inactive) | 15.4 µM (inactive) | 0.9 µM (active) | 11 µM (inactive) | 12.4 µM (inactive) | > 100 µM (inactive) | 10.7 µM (inactive) |  | 14.4 µM (inactive) | 18.8 µM (inactive) | 25.2 µM (inactive) | 19.9 µM (inactive) | 12.6 µM (inactive) | 48.9 µM (inactive) | 22.7 µM (inactive) | 20 µM (inactive) | 
Cc1ccc(S(=O)(=O)NC(C(=O)O)C(C)C)cc1 (stereo unspecified) | > 100 µM (inactive) | > 100 µM (inactive) | > 100 µM (inactive) | > 100 µM (inactive) | > 100 µM (inactive) | > 100 µM (inactive) | > 100 µM (inactive) | > 100 µM (inactive) | > 100 µM (inactive) | > 100 µM (inactive) | > 100 µM (inactive) | > 100 µM (inactive) |  | > 100 µM (inactive) | > 100 µM (inactive) | > 100 µM (inactive) | > 100 µM (inactive) | > 100 µM (inactive) | > 100 µM (inactive) | 
CCOC(=O)C1=C(O)C2C3CC4C2C(O)=C(C(=O)OCC)C2C1C3C42 (stereo unspecified) | > 100 µM (inactive) | > 100 µM (inactive) | > 100 µM (inactive) |  | > 100 µM (inactive) | 95.5 µM (inactive) | > 100 µM (inactive) | > 100 µM (inactive) | > 100 µM (inactive) | 18.7 µM (inactive) | > 100 µM (inactive) | > 100 µM (inactive) | > 100 µM (inactive) | > 100 µM (inactive) | > 100 µM (inactive) | > 100 µM (inactive) | > 100 µM (inactive) | 42.7 µM (inactive) | > 100 µM (inactive) | 24.8 µM (inactive)
Nc1ccc(Cn2ccc3c4c(N)nc(N)nc4ccc32)cc1 | < 0.0252 µM (active) |  | < 0.01 µM (active) | < 0.0268 µM (active) | 0.0141 µM (active) | 0.71 µM (active) | < 0.01 µM (active) | 4.27 µM (inactive) | < 0.01 µM (active) | 0.242 µM (active) | 0.118 µM (active) | < 0.0156 µM (active) | < 0.0184 µM (active) | 0.128 µM (active) | < 0.01 µM (active) | 0.804 µM (active) | 1.58 µM (inactive) | < 0.01 µM (active) | 0.431 µM (active) | < 0.01 µM (active)
O=NN1C(c2ccccc2)C2CCCC(C2=O)C1c1ccccc1 (stereo unspecified) |  | 34 µM (inactive) |  | 16.6 µM (inactive) | 27 µM (inactive) | 22 µM (inactive) | 40 µM (inactive) | 25.1 µM (inactive) | 22 µM (inactive) | 32.7 µM (inactive) | 18.9 µM (inactive) | 49.8 µM (inactive) | 44.6 µM (inactive) | 21.7 µM (inactive) | 18.7 µM (inactive) | 22.8 µM (inactive) |  | 28.3 µM (inactive) | 4.82 µM (inactive) | 19.3 µM (inactive)
CN1CCOC1(C)CO (stereo unspecified) | > 100 µM (inactive) | > 100 µM (inactive) | > 100 µM (inactive) |  | > 100 µM (inactive) | > 100 µM (inactive) | > 100 µM (inactive) | > 100 µM (inactive) | > 100 µM (inactive) | > 100 µM (inactive) | > 100 µM (inactive) | > 100 µM (inactive) | > 100 µM (inactive) |  | > 100 µM (inactive) | 28.6 µM (inactive) | > 100 µM (inactive) | > 100 µM (inactive) | > 100 µM (inactive) | 50.8 µM (inactive)
O=[N+]([O-])c1ccc(/C=C/c2ccc(/N=N/c3ccc(/C=C/c4ccc([N+](=O)[O-])cc4S(=O)(=O)O)c(S(=O)(=O)O)c3)cc2S(=O)(=O)O)c(S(=O)(=O)O)c1 |  | > 100 µM (inactive) |  | 43.6 µM (inactive) | > 100 µM (inactive) | > 53.1 µM (inactive) | > 100 µM (inactive) | > 100 µM (inactive) | > 100 µM (inactive) | > 100 µM (inactive) | > 100 µM (inactive) | > 100 µM (inactive) | > 100 µM (inactive) | > 100 µM (inactive) | > 100 µM (inactive) | 61.8 µM (inactive) |  | > 100 µM (inactive) | > 87.5 µM (inactive) | > 100 µM (inactive)

From ChEMBL document CHEMBL1201862, “PubChem BioAssay data set” (2004)
